US20230086703A1, “N-(4-(5-chloropyridin-3-yl)phenyl)-2-(2-(cyclopropanesulfonamido)pyrimidin-4-yl) butanamide derivatives and related compounds as human CTPS1 inhibitors for the treatment of proliferative diseases” (Step Pharma S.A.S., priority 2019, published 2023)

target: T1, human CTPS1 (Homo sapiens, UniProt P17812); assay: Human CTPS1 enzyme inhibition, ADP-Glo Max assay; assay type: biochemical; details: ADP-Glo Max assay
T1 construct: FLAG (with GG linker); His8 (with GG linker); purchased Proteros biostructures GmbH
T1 sequence (P17812 1-591): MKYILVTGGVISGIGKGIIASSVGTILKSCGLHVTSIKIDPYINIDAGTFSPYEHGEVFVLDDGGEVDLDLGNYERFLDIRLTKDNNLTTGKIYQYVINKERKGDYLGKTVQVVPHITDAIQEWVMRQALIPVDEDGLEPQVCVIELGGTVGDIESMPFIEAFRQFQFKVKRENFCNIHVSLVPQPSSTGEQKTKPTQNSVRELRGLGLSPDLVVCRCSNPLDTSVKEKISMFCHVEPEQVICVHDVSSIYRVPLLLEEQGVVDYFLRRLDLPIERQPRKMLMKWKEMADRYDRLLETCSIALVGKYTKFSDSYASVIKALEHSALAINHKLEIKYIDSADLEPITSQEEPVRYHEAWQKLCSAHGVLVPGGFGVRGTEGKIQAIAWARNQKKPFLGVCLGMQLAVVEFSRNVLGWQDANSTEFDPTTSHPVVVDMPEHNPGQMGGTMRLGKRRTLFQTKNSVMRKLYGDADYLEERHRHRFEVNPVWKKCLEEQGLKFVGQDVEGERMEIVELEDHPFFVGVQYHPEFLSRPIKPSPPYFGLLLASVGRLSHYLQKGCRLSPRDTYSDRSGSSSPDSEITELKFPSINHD
Method: The enzyme inhibitory activities of compounds invented against the target of interest were determined using the ADP-Glo™ Max assay (Promega, UK). Assays for human CTPS1 were performed in 1× assay buffer containing 50 mM Tris, 10 mM MgCl2, 0.01% Tween-20, pH to 8.0 accordingly. Finally, immediately before use, L-cysteine was added to the 1× assay buffer to a final concentration of 2 mM. All reagents are from Sigma-Aldrich unless specified otherwise.
3× human CTPS1 protein was prepared in 1× assay buffer to the final working protein concentration required for the reaction. A 2 uL volume per well of 3× human CTPS1 protein was mixed with 2 uL per well of 3× test compound (compound prepared in 1× assay buffer to an appropriate final 3× compound concentration respective to the concentration response curve designed for the compounds under test) for 10 minutes at 25° C. […] ADP-Glo™ Max reagent was added for 60 minutes (6 μL per well) and subsequently ADP-Glo™ Max development reagent was added for 60 minutes (12 uL per well) prior to signal detection in a microplate reader (EnVision® Multilabel Reader, Perkin Elmer). Following each reagent addition over the course of the assay, assay plates were pulse centrifuged for 30 seconds at 500 rpm.
In all cases, the enzyme converts ATP to ADP and the ADP-Glo™ Max reagent subsequently depletes any remaining endogenous ATP in the reaction system. The ADP-Glo™ Max detection reagent converts the ADP that has been enzymatically produced back into ATP and using ATP as a substrate together with luciferin for the enzyme luciferase, light is generated which produces a detectable luminescence. […] The percentage inhibition produced by each concentration of compound was calculated using the equation shown below: […]

inhibition of CTPS1 enzyme (result in words) | SMILES
activity is retained | CCOc1cncc(-c2ccc(CNC(C)(C)c3csc(NS(=O)(=O)C4CC4)n3)c(F)c2)n1 [R94, N-(4-(2-((4-(6-Ethoxypyrazin-2-yl)-2-fluorobenzyl)amino)propan-2-yl)thiazol-2-yl)cyclopropanesulfonamide]

same assay, conditions: ADP-Glo Max assay, human full length CTPS1; read-out: CTPS1 (Human CTPS1 Enzyme Inhibition data grouped by potency range, IC50)

IC50 | SMILES
< 100 nM | CCOc1cncc(-c2ccc(NC(=O)C3(c4ccnc(NS(=O)(=O)C5CC5)n4)CCN(C(=O)OC(C)(C)C)CC3)nc2)n1 [P139, tert-butyl 4-(2-(cyclopropanesulfonamido)pyrimidin-4-yl)-4-((5-(6-ethoxypyrazin-2-yl)pyridin-2-yl)carbamoyl)piperidine-1-carboxylate]

same assay, conditions: ADP-Glo Max assay; Table 10; read-out: Human CTPS1 Enzyme Inhibition, IC50 grouped by potency range (CTPS1)

IC50 | SMILES
< 100 nM | CCC(C(=O)Nc1ccc(-c2cncc(F)c2)cc1)c1csc(NS(=O)(=O)C2CC2)n1 (single isomer, unassigned) [T72, 2-(2-(cyclopropanesulfonamido)thiazol-4-yl)-N-(4-(5-fluoropyridin-3-yl)phenyl)butanamide]
< 100 nM | CCC(C(=O)Nc1ccc(-c2cncc(C(F)(F)F)n2)cc1)c1csc(NS(=O)(=O)C2CC2)n1 (single isomer, unassigned) [T106, 2-(2-(cyclopropanesulfonamido)thiazol-4-yl)-N-(4-(6-(trifluoromethyl)pyrazin-2-yl)phenyl)butanamide]
< 100 nM | COc1cncc(-c2ccc(NC(=O)C(OC)c3csc(NS(=O)(=O)C4CC4)n3)cc2)n1 (single isomer, unassigned) [T107, 2-(2-(cyclopropanesulfonamido)thiazol-4-yl)-2-methoxy-N-(4-(6-methoxypyrazin-2-yl)phenyl)acetamide]
< 100 nM | COC(C(=O)Nc1ccc(-c2cncc(C(F)(F)F)n2)cc1F)c1csc(NS(=O)(=O)C2CC2)n1 (single isomer, unassigned) [T458, 2-(2-(cyclopropanesulfonamido)thiazol-4-yl)-N-(2-fluoro-4-(6-(trifluoromethyl)pyrazin-2-yl)phenyl)-2-methoxyacetamide]
< 100 nM | COC(C(=O)Nc1ccc(-c2cncc(C(F)(F)F)n2)cc1F)c1csc(NS(=O)(=O)C2CC2)n1 (single isomer, unassigned) [T459, 2-(2-(cyclopropanesulfonamido)thiazol-4-yl)-N-(2-fluoro-4-(6-(trifluoromethyl)pyrazin-2-yl)phenyl)-2-methoxyacetamide]
100 to 1000 nM | O=C(Cc1csc(NS(=O)(=O)C2CC2)n1)Nc1ccc(-c2cncnc2)nc1 [T23, 2-(2-(cyclopropanesulfonamido)thiazol-4-yl)-N-(6-(pyrimidin-5-yl)pyridin-3-yl)acetamide]
1000 to 10000 nM | O=C(Cc1csc(NS(=O)(=O)C2CC2)n1)Nc1ccc(-c2ccc(F)cc2)cc1 [T25, 2-(2-(cyclopropanesulfonamido)thiazol-4-yl)-N-(4′-fluoro-[1,1′-biphenyl]-4-yl)acetamide]
100 to 1000 nM | CN(C(=O)Cc1csc(NS(=O)(=O)C2CC2)n1)c1ccc(-c2cccnc2)cc1 [T26, 2-(2-(cyclopropanesulfonamido)thiazol-4-yl)-N-methyl-N-(4-(pyridin-3-yl)phenyl)acetamide]
100 to 1000 nM | COc1cccc(-c2ccc(NC(=O)C(C)(C)c3csc(NS(=O)(=O)C4CC4)n3)cc2)c1 [T28, 2-(2-(cyclopropanesulfonamido)thiazol-4-yl)-N-(3′-methoxy-[1,1′-biphenyl]-4-yl)-2-methylpropanamide]
< 100 nM | Cc1cncc(-c2ccc(NC(=O)C(C)(C)c3csc(NS(=O)(=O)C4CC4)n3)cc2)c1 [T30, 2-(2-(cyclopropanesulfonamido)thiazol-4-yl)-2-methyl-N-(4-(5-methylpyridin-3-yl)phenyl)propanamide]
1000 to 10000 nM | CC(C)(C(=O)Nc1ccc(-c2ccnnc2)cc1)c1csc(NS(=O)(=O)C2CC2)n1 [T31, 2-(2-(cyclopropanesulfonamido)thiazol-4-yl)-2-methyl-N-(4-(pyridazin-4-yl)phenyl)propanamide]
< 100 nM | CC(C)(C(=O)Nc1ccc(-c2cnccn2)cc1)c1csc(NS(=O)(=O)C2CC2)n1 [T32, 2-(2-(cyclopropanesulfonamido)thiazol-4-yl)-2-methyl-N-(4-(pyrazin-2-yl)phenyl)propanamide]
100 to 1000 nM | CC(C)(C(=O)Nc1ccc(-c2cnccn2)c(C#N)c1)c1csc(NS(=O)(=O)C2CC2)n1 [T34, N-(3-cyano-4-(pyrazin-2-yl)phenyl)-2-(2-(cyclopropanesulfonamido)thiazol-4-yl)-2-methylpropanamide]
100 to 1000 nM | CC(C)(C(=O)Nc1ccc(-c2cccnc2)c(F)c1F)c1csc(NS(=O)(=O)C2CC2)n1 [T36, 2-(2-(cyclopropanesulfonamido)thiazol-4-yl)-N-(2,3-difluoro-4-(pyridin-3-yl)phenyl)-2-methylpropanamide]
100 to 1000 nM | CC(C)(C(=O)Nc1ncc(-c2cccnc2)cn1)c1csc(NS(=O)(=O)C2CC2)n1 [T37, 2-(2-(cyclopropanesulfonamido)thiazol-4-yl)-2-methyl-N-(5-(pyridin-3-yl)pyrimidin-2-yl)propanamide]
< 100 nM | CCCOc1cncc(-c2ccc(NC(=O)C(C)(C)c3csc(NS(=O)(=O)C4CC4)n3)nc2)n1 [T38, 2-(2-(cyclopropanesulfonamido)thiazol-4-yl)-2-methyl-N-(5-(6-propoxypyrazin-2-yl)pyridin-2-yl)propanamide]
< 100 nM | CC(C)(C(=O)Nc1ccc(-c2cccnc2)cc1OC(F)(F)F)c1csc(NS(=O)(=O)C2CC2)n1 [T40, 2-(2-(cyclopropanesulfonamido)thiazol-4-yl)-2-methyl-N-(4-(pyridin-3-yl)-2-(trifluoromethoxy)phenyl)propanamide]
100 to 1000 nM | COc1cc(NC(=O)C(C)(C)c2csc(NS(=O)(=O)C3CC3)n2)ccc1-c1cnccn1 [T43, 2-(2-(cyclopropanesulfonamido)thiazol-4-yl)-N-(3-methoxy-4-(pyrazin-2-yl)phenyl)-2-methylpropanamide]
100 to 1000 nM | COc1ncccc1-c1ccc(NC(=O)C(C)(C)c2csc(NS(=O)(=O)C3CC3)n2)cc1 [T44, 2-(2-(cyclopropanesulfonamido)thiazol-4-yl)-N-(4-(2-methoxypyridin-3-yl)phenyl)-2-methylpropanamide]
100 to 1000 nM | O=C(Cc1csc(NS(=O)(=O)C2CC2)n1)Nc1ccc(-c2cncc(CO)c2)cc1 [T45, 2-(2-(cyclopropanesulfonamido)thiazol-4-yl)-N-(4-(5-(hydroxymethyl)pyridin-3-yl)phenyl)acetamide]

same assay, conditions: Table 12, ADP-Glo Max assay; read-out: CTPS1 (Human CTPS1 Enzyme Inhibition data grouped by potency range)

IC50 | SMILES
100 to 1000 nM | CCOc1cnc(-c2ccc(NC(CC)c3ccnc(NS(=O)(=O)C4CC4)n3)cc2)cn1 (stereo not drawn) [P261]
< 100 nM | CCOc1cncc(-c2ccc(NC(=O)C3(c4ccnc(NS(=O)(=O)C5CC5)n4)CCN(C(=O)COC)CC3)nc2)n1 [P288]
< 100 nM | CCOC(=O)CN1CCC(C(=O)Nc2ccc(-c3cncc(OCC)n3)cn2)(c2nccc(NS(=O)(=O)C3CC3)n2)CC1 [P295]
< 100 nM | CCOc1cncc(-c2ccc(NC(=O)C3(c4ccnc(NS(=O)(=O)CC)n4)CCN(C(=O)COC)CC3)nc2)n1 [P296]
< 100 nM | CCOc1cncc(-c2ccc(NC(=O)C3(c4ccnc(NS(=O)(=O)C5CC5)n4)CCC(N)CC3)nc2)n1 (stereo not drawn) [P304]
< 100 nM | CCOc1cncc(-c2ccc(NC(=O)C3(c4ccnc(NS(=O)(=O)C5CC5)n4)CCC(N(C)CC(F)F)CC3)nc2)n1 (stereo not drawn) [P310]
100 to 1000 nM | CCOc1cncc(-c2ccc(NC(=O)C3(c4ccnc(NS(=O)(=O)C5CC5)n4)CCC(N4CCN(C)CC4)CC3)nc2)n1 (stereo not drawn) [P311]

same assay, conditions: Table 14, ADP-Glo Max assay; read-out: CTPS1 (Human CTPS1 Enzyme Inhibition data grouped by potency range)

IC50 | SMILES
< 100 nM | CCOc1cncc(-c2ccc(CNC(C)(C)c3csc(NS(=O)(=O)C4CC4)n3)c(F)c2)n1 [R94, N-(4-(2-((4-(6-Ethoxypyrazin-2-yl)-2-fluorobenzyl)amino)propan-2-yl)thiazol-2-yl)cyclopropanesulfonamide]
